Experimental data taken from US6511974B1, “Tricyclic vasopressin agonists” (Wyeth, priority 1997, dated 2003).

Key:
Vasopressin V2 = target: T1, Vasopressin V2 (Rattus norvegicus, UniProt Q00788); experiment: Vasopressin V2 agonist effects in normal conscious water-loaded rats; type: in vivo; settings: Sprague-Dawley (CD) rats, urine collected four hours; for Urine Volume (% decrease): 10 mg per kg oral, percent decrease in urine volume vs. control; for Osmolality (% Increase): 10 mg/kg oral, change in osmolality as percent of control
T1 construct: vasopressin V2 receptors of the nephrons of the kidney; tissue Charles River Laboratories, Inc; host or cells: whole living animal (kidney collecting ducts)
Text: Vasopressin V2 Agonist Effects of Test Compounds in Normal Conscious Water-Loaded Rats:
Male or female normotensive Sprague-Dawley rats (Charles River Laboratories, Inc., Kingston, N.Y.) of 350-500 g body weight were supplied with standard rodent diet (Purina Rodent Lab. Chow 5001) and water ad libitum. On the day of test, rats were placed individually into metabolic cages equipped with devices to separate the feces from the urine and containers for collection of urine. Test compound or reference agent was given at an oral dose of 10 mg/kg in a volume of 10 ml/kg. The vehicle used was 20% dimethylsulfoxide (DMSO) in 2.5% preboiled corn starch. Thirty minutes after dosing the test compound, rats were gavaged with water at 30 ml/kg into the stomach using a feeding needle. During the test, rats were not provided with water or food. Urine was collected for four hours after dosing of the test compound. At the end of four hours, urine volume was measured. Urinary osmolality was determined using a Fiske One-Ten Osmometer (Fiske Associates, Norwood, Mass., 02062) or an Advanced CRYOMATIC Osmometer, Model 3C2 (Advanced Instruments, Norwood, Mass.). Determinations of Na^+, K^+ and Cl^− ion were carried out using ion specific electrodes in a Beckman SYNCHRON EL-ISE Electrolyte System analyzer. The urinary osmolality should increase proportionally. In the screening test, two rats were used for each compound. If the difference in the urine volume of the two rats was greater than 50%, a third rat was used.

T1 sequence (Q00788 whole entry): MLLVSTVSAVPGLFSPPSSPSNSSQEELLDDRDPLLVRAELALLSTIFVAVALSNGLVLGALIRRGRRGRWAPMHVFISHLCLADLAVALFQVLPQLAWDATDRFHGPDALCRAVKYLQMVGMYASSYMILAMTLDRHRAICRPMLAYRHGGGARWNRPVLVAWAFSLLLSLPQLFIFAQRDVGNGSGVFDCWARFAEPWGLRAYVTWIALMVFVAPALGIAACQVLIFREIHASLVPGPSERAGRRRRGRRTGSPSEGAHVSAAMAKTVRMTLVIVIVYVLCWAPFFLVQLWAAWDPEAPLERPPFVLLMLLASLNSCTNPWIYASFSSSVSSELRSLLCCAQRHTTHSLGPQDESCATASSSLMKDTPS

SMILES	Urine Volume (% decrease) (Vasopressin V2)	Osmolality (% Increase) (Vasopressin V2)	melting point
C#Cc1ccc(C(=O)N2Cc3cccn3Cc3ccccc32)c(Cl)c1 [Example 123, [2-Chloro-4-ethynyl-phenyl](5H-11H-pyrrolo [1,2-c][1,4]benzodiazepin-10-yl)methanone.]	88%	663%	–
Cc1ccn(-c2ccc(C(=O)N3Cc4cccn4Cc4ccccc43)c(Cl)c2)n1 [Example 9A]	70%	325%	–
Cc1cnn(-c2ccc(C(=O)N3C=C4CC=CN4Cc4ccccc43)cc2)c1 [Example 60, [4-(4-Methyl-pyrazol-1-yl)-phenyl]-(5H,1H-pyrrolo[2,1-c][1,4]-benzodiazepin-10-yl)-methanone]	–	–	179 to 181 °C
Cn1ncnc1-c1ccc(C(=O)N2Cc3cccn3Cc3ccccc32)c(Cl)c1 [Example 84, [2-Chloro-4-(2-methyl-2H-[1,2,4]triazol-3-yl)-phenyl]-(5H,11H-pyrrolo [2,1-c][1,4]benzodiazepin-10)-methanone]	56%	291%	–
